We go through 57 molecules from PubChem BioAssay AID489027 (Sanford-Burnham Center for Chemical Genomics, 2010).

What is called EC50 is the concentration giving half of the maximal effect.

The assay concerns the target UPR counterscreen luciferase reporter, luminescence. As to the kind of experiment: luciferase reporter activation, UPR counterscreen line – cell-based, luminescence, counter-screen for adaptive UPR activator project, dose response (AID 489027). For orientation: A reporter such as luciferase makes a cellular process visible.

The source made the active and inactive calls. How the calls were made is not given here.

As for `CC1CCC(C(C)C)C(OC(=O)Cn2c(-c3ccc(Br)cc3)[n+](C)c3ccccc32)C1` (configuration not stated), the EC50 is 10.9 µM.
The result for `COc1ccc2[nH]c3c(c2c1)CCN1C(=O)C(CC(=O)NC/C=C(\C)CCC=C(C)C)C[C@H](C(=O)N2CCOCC2)[C@@]31CCC1CCCC1` (some centres not stated) reads 18.5 µM.
The figure for `CCCOC(=O)c1cccc(Nc2nc(-c3cccnc3)nc3ccccc23)c1` is > 80 µM (inactive); for `CCc1cccc(CC)c1NC(=O)/C(C#N)=C/c1ccccc1C(F)(F)F` it is > 80 µM (inactive).
For `Cc1ccc(-c2ccnc(-c3ccc(O)cc3)n2)cc1`, the EC50 is > 80 µM (inactive).
The result for `O=CC1=C(c2ccccc2)Oc2ccccc2O1` reads 10.3 µM.
For the molecule `C=C(C)[C@@]12OC3(c4ccccc4)O[C@@H]1C1[C@@H]4O[C@]4(CO)[C@@H](O)[C@]4(O)C(=O)C(C)=C[C@H]4[C@@]1(O3)[C@H](C)[C@H]2OC(=O)/C=C/C=C/c1ccccc1` (some centres not stated), the EC50 result was “inactive”.
The entry for `Cc1ccc(-n2c(O)c(/C=N/c3ncc(Br)cc3Br)c(=O)[nH]c2=O)cc1` is “inactive”.
`Cc1ccc2c(c1)C(c1ccc([N+](=O)[O-])cc1)=NNC(c1ccc(Br)cc1)=N2`: the EC50 is > 80 µM (inactive).
The figure for `O=C(c1ccc2c(c1)[nH]c(=S)n1c3ccccc3nc21)N1CCN(c2cccc(Cl)c2)CC1` is 16.4 µM; for `CCOC(=S)SCC(=O)Nc1nc(-c2ccc(Br)cc2)cs1` it is 13 µM; for `Cc1[nH]c2ccccc2c1/C=C/c1nc2ccccc2c(=O)n1-c1ccc([N+](=O)[O-])cc1` it is > 80 µM (inactive).
For the molecule `Cc1ccc2c(n1)sc1c(-c3ccc(Br)cc3)c(C#N)c(N)nc12`, the EC50 is > 80 µM (inactive).
In the case of `CC(=O)Nc1ccccc1Sc1ccc2c3c(cccc13)C(=O)N(c1ccc(C)cc1)C2=O`, the EC50 was > 80 µM (inactive).
On to `COc1cc([C@@H]2c3cc4c(cc3[C@@H](O)[C@H]3COC(=O)[C@H]23)OCO4)cc(OC)c1O[Si](C)(C)C(C)(C)C`, for which the 50% effective concentration (EC50) was 14.6 µM.
In the case of `COc1ccc(-c2cc(C(F)F)n3ncc(C(=O)N4CCc5ccccc5C4)c3n2)cc1`, the EC50 entry is “inactive”.
The result for `COc1ccc(/C=N/Nc2nnc(-c3ccccc3)c(=O)[nH]2)cc1` reads 15.6 µM.
The result for `O=C1NC(=O)C(=Cc2cn(CCOc3ccc4c(c3)OCO4)c3ccccc23)C(=O)N1` reads 18.5 µM; that for `Cn1c(/C=C/c2ccc(Cl)cc2Cl)c([N+](=O)[O-])c(=O)n(C)c1=O`, 12.8 µM.
The figure for `Nc1nc(-c2cc(O)ccc2[N+](=O)[O-])cc(-c2ccccc2)c1[N+](=O)[O-]` is 7.88 µM; for `CCc1ccc2nc(N(CCCN(C)C)C(=O)c3ccc(S(=O)(=O)N4CCc5ccccc5C4)cc3)sc2c1` it is 12.7 µM; for `COc1ccc(NC(=O)c2cc3c(=O)n(C)c4ccccc4c3n2C)cc1Cl` it is > 80 µM (inactive).
In the case of `CCCCNc1c(-c2ccc(-c3ccc(C(C)=O)cc3)c(OC)c2)nc2cc(C)ccn12`, the EC50 was > 80 µM (inactive).
Take `CCOC(=O)C1=C(C)N=c2s/c(=C3/C(=O)Nc4ccccc43)c(=O)n2C1c1ccc(C)cc1` (configuration not stated): the EC50 was > 80 µM (inactive).
The figure for `O=[N+]([O-])c1ccc(N/N=C/c2ccc(OCc3cccc4ccccc34)cc2)nc1` is > 80 µM (inactive); for `FC(F)(F)c1nnc2c(Sc3ccccc3)nc3ccc(Cl)cc3n12` it is 4.29 µM; for `Cn1nnnc1Sc1ncnc2scc(-c3ccc(Cl)cc3)c12` it is 17.1 µM.
Regarding `CCOC(=O)c1c(-c2ccc(C)o2)csc1NC(=O)COC(=O)c1ccc(NC(N)=O)cc1`, the EC50 is > 80 µM (inactive).
Regarding `COc1ccc(CNC(=O)/C(C#N)=C/c2cccc(OC)c2OC)cc1`, the EC50 entry was “inactive”.
Regarding `CC1CCC(C(C)C)C(OC(=O)Cn2c(-c3ccc(Cl)cc3)[n+](C)c3ccccc32)C1` (configuration not stated), the EC50 was 13.4 µM.
As for `O=C(Nc1ccc(-c2nc3cc(NC(=O)c4cccs4)ccc3o2)cc1)c1cccs1`, the half-maximal effective concentration (EC50) was 4.72 µM.
For the molecule `CCOC(=O)c1sc(NC(=S)NC(=O)c2ccccc2)c(C(=O)OCC)c1C`, the EC50 result was “inactive”.
Turning to `Cc1nn(Cc2ccccc2)c(C)c1NC(=O)CSc1nc(C2CC2)nc2c1cnn2-c1ccccc1`, the EC50 entry is “inactive”.
For `CCOc1cc(/C=C2/C(=N)N3C=CSC3=NC2=O)ccc1OCCCOc1ccccc1C`, the EC50 was 17.7 µM.
The figure for `CN(C)CCCN(C(=O)c1ccc(S(=O)(=O)N2CCCCCC2)cc1)c1nc2ccc(Br)cc2s1` is 12.7 µM; for `Brc1ccc(C2=Nn3c(nnc3-c3n[nH]c4c3CCC4)SC2)cc1` it is “inactive”.
The figure for `Cc1c(C(=O)Nc2nccs2)oc2ccc(Br)cc12` is > 80 µM (inactive).
The figure for `COc1ccc(-c2cc(C(F)F)n3ncc(C(=O)Nc4ccc(C(=O)N5CCOCC5)cc4)c3n2)cc1` is > 80 µM (inactive); for `C[C@H]1[C@H](C)CC[C@]2(C(=O)O)CC[C@]3(C)C(=CC[C@@H]4[C@@]5(C)C[C@@H](O)[C@H](O)C(C)(C)[C@@H]5CC[C@]43C)[C@H]12` it is > 80 µM (inactive); for `Cc1ccc2nc(N(CCCN(C)C)C(=O)c3ccc(S(=O)(=O)N4CCc5ccccc5C4)cc3)sc2c1` it is 10.9 µM.
Consider `CCOc1cc(/C=C(\C#N)c2[nH]nc(N)c2C#N)ccc1O`, for which the EC50 was > 80 µM (inactive).
The figure for `Cn1c2ccccc2c2cc(/C=N/NC(=O)c3cc(O)ccc3O)ccc21` is 4.02 µM.
For `COc1ccc(Cn2c(SCc3ccccc3C)nc3cc(OC)c(OC)cc3c2=N)cc1`, the half-maximal effective concentration (EC50) is 9.65 µM.
On to `COc1ccc(/C=N/NC(=O)c2cccc([N+](=O)[O-])c2)c2ccccc12`, for which the EC50 result was “inactive”.
The figure for `CCc1ccc(OCCNc2cc(N3CCNC(C)C3)ccc2[N+](=O)[O-])cc1` (configuration not stated) is > 80 µM (inactive); for `CC1(C)CC[C@@]23CC[C@]4(C)[C@@](OC2=O)(C3C1)[C@H]1O[C@H]1C1[C@@]2(C)CC[C@H](O)C(C)(C)C2CC[C@]14C` (some centres not stated) it is “inactive”; for `O=C(Nc1ccc(Br)cc1)c1cc(-c2ccncc2)nc2ccccc12` it is 12.7 µM.
For the molecule `CCN(CC)c1ccc(N=Cc2c(O)n(Cc3ccccc3)c(=O)[nH]c2=O)cc1`, the EC50 result was “inactive”.
Consider `Cc1cc(-n2c(SCC(=O)Nc3ccc(F)c(F)c3)nc3n[nH]c(C)c3c2=N)ccc1Cl`, for which the EC50 is > 80 µM (inactive).
Turning to `Cn1nc(C(F)(F)F)c(/C=N/OC(=O)c2ccccc2Cl)c1SCc1ccccc1Cl`, the EC50 entry was “inactive”.
The result for `O=C(NCCC1=CCCCC1)C(=O)NCC(c1ccco1)N1CCN(c2ccc(F)cc2)CC1` (configuration not stated) reads > 80 µM (inactive); that for `CCOC(=O)Cc1csc(/N=C/c2c(O)n(-c3ccc(C)c(C)c3)c(=O)c3ccccc23)n1`, 7.15 µM.
The figure for `O=C(NCc1ccccc1Br)c1cccc2c1C(=O)c1ccc(-c3ccc(OC(F)(F)F)cc3)cc1S2(=O)=O` is 9.03 µM.
The result for `Oc1ccc(/C=N/Nc2nc(N3CCCC3)nc(N3CCCC3)n2)cc1O` reads 3.95 µM.
`CCCCN(CC)S(=O)(=O)c1ccc(C(=O)N=c2sc3cc(NC(C)=O)ccc3n2C)cc1`: the EC50 is 5.23 µM.
`CC1(C)C[C@H](O)[C@]2(CO)[C@H](O)C[C@]3(C)C(=CCC4[C@@]5(C)CC[C@H](O)C(C)(C)C5CC[C@]43C)[C@@H]2C1` (some centres not stated): the EC50 is > 80 µM (inactive).
The result for `Cc1ccc(CN2C(=O)C(=O)c3cc(C)ccc32)cc1` reads “inactive”.
